Non-standard residues stand in square brackets, D forms with d. Residues, ends and D or L forms follow the SMILES beside them. *: point of attachment. Gly(N-(3-decanoyloxypropyl)) = CCCCCCCCCC(=O)OCCCNCC(=O)O; N(3-lauroyloxypropyl)Gly = CCCCCCCCCCCC(=O)OCCCNCC(=O)O; Gly(N-(CH2)3O-octanoyl) = CCCCCCCC(=O)OCCCNCC(=O)O; N(3-imidazol-1-ylpropyl)Gly = O=C(O)CNCCCn1ccnc1; Gly(N-3-morpholinopropyl) = O=C(O)CNCCCN1CCOCC1; N(2-ethylhexyl)Gly = CCCCC(CC)CNCC(=O)O; NDecylGly = CCCCCCCCCCNCC(=O)O; NHexGly = CCCCCCNCC(=O)O; For = O=C*
Experiments:
[1] = Delivery vehicle size and polydispersity by dynamic light scattering; type: physicochemical; conditions: DLS in PBS; peptoid:DSPC:Cholesterol:DMG-PEG2000 weight ratio 20:1.79:7.16:1.84, mRNA
Description: Delivery vehicles were formulated by rapid microfluidic mixing using a high throughput microfluidic system. Briefly, ethanol solutions containing peptoid, DSPC, Cholesterol, DMG-PEG2000 at weight ratio of 20:1.79:7.16:1.84, were mixed with 10 mM sodium citrate buffer (pH 5.0) containing synthesized mRNA at a ratio of 1:3 by volume. Peptoid based LNPs were subsequently dialyzed against 1-2 liters of tris-sucrose buffer (TS7, pH 7.4) overnight at 4 °C. Delivery vehicle size and polydispersity (PDI) was measured by dynamic light scattering in PBS.
(§1) Degradable peptoids described herein were formulated as various formulations described in Table 3 according to the procedure described in Example 2. Particle size was characterized as described in Example 2, and […] encapsulation of mRNA was determined as described in Example 3.

mRNA = mRNA encapsulation (modified Quant-iT RiboGreen assay); type: physicochemical; conditions: RiboGreen, without vs with Triton X-100
Description: The mRNA concentration and the percentage of encapsulated mRNA were determined using fluorescent-based Quant-iT RiboGreen RNA Reagent Kit (Life Technologies, Waltham, MA) as described previously. To determine the mRNA concentration, PNPs was incubated with […] for 10 min to release entrapped mRNA, followed by addition of RiboGreen RNA reagent. The fluorescence intensity of mRNA-RiboGreen reagent complex (excitation at 485 nm and emission at 530 nm) was detected using a microplate reader. The ratio of fluorescence without and with Triton X-100 were used to calculate the percentage of encapsulated mRNA.
as §1

firefly luciferase = test: In vivo firefly luciferase expression after intravenous injection of fLuc mRNA delivery vehicles (IVIS imaging); parameters: species or system female Balb/c mice; conditions: mice, 2.5 ug fLuc mRNA intravenously, 6 hours post-injection
Description: (§2) All animal studies were conducted under accreditation by the California State Department of Public Health and under supervision of IACUC and Veterinarian Supervision. For imaging studies, female Balb/c mice (6-8 weeks old) were obtained and acclimatized for a minimum of 3 days prior to experiments. The animals were maintained on a 12 hour light cycle in a temperature and humidity controlled room. A daily health check was performed as well as food and water check. For dosing, mice were injected with 2.5 ug fLuc mRNA-containing Nutshells intravenously in 100 μL total injection value. At 6 hours post-injection, mice were anesthetized with isoflurane, injected IP with 30 mg/mL D-luciferin at a dose of 10 μL per gram bodyweight intraperitoneally. Imaging was done 10 minutes post D-luciferin injection using an IVIS Spectrum Imaging System (Caliper Life Sciences). Immediately after in vivo imaging, mice were terminally bled by cardiac puncture and euthanized. The organs of interest were harvested, placed in black 24-well plates, and imaged. Living Image software (Perkin Elmer) was used to quantify the total photon flux in regions of interest.
Luciferase expression in these formulations was also determined as described in Example 4.

hEPO = test: Quantification of hEPO in serum after IV injection of mRNA (Human EPO ELISA); type: in vivo; conditions: Balb/c mice, 2.5 μg mRNA IV, serum after 6 hours
Description: Balb/c mice were treated with 2.5 μg of mRNA coding for human erythropoiten via IV injection according to a similar method as in Example 4. hEPO protein in the serum was quantified after 6 hours using the Human EPO ELISA Kit from Invitrogen (catalog #BMS2035-2). Wash buffer (PBS with 1% tween 20) and assay buffer (PBS with 1% tween 20, 10% BSA) were prepared from a 20× concentrate with milli-Q water. Serum samples were diluted with PBS according to expected EPO concentration, with a 50× dilution for low expression samples and up to a 30,000× dilution for samples expected to have high expression. Microwell strips were washed in a plate washer with wash buffer and tapped on an absorbent pad to remove excess buffer. 100 μL of sample diluent were added to each well that will be used for the standard curve. 50 μL of sample diluent was added to each sample well.
The standard curve was prepared by reconstituting the human erythropoietin standard by adding the volume of water listed on the vial label. Standard was swirled gently and allowed to reconstitute for 10 minutes prior to use, then 100 μL is added to standard wells and mixed well. 100 μL from standard wells were then transferred to sample wells and mixed well. This was repeated 5 times to produce 2 columns of standard dilutions from 100 to 1.6 mIU/mL. 100 μL was discarded from the last microwells. The final 2 wells contained 100 μL of sample diluent and served as a blank. An external standard was also included to facilitate a mIU/mL conversion to ng/mL. The same serial dilution method was repeated starting with the external standard at 6.25 ng/mL. Once the standards were added, 50 μL of each sample was added in duplicate to the sample wells. Next, the biotin-conjugate was prepared by diluting 1:100 in assay buffer. 50 μL of biotin-conjugate was added to all wells and the plate was covered with a plate seal and shaken at room temperature for 1 hour. During the last few minutes of shaking, streptavidin-HRP was prepared by diluting 1:100 in assay buffer. The plate was washed on a plate washer and tapped on an absorbent pad to remove remaining wash buffer.
100 μL of the diluted streptavidin-HRP was added to each well and the plate was sealed and shaken for 15 minutes at room temperature. After 15 minutes, the plate seal was removed and the plate was washed on a plate washer and remaining wash buffer tapped out on an absorbent pad. 100 μL of TMB substrate was added to all wells and the plate was incubated for 10 minutes at room temperature out of direct light. Color development was checked every few minutes and the assay was stopped when the highest standard was dark blue. The reaction was stopped by pipetting 100 μL of stop solution into each well. Immediately after stop solution was added, the plate was gently tapped to ensure the solution was mixed. Absorbance was then read at 450 nm for each well. A standard curve was plotted for both the kit-provided standards (mIU/mL) and the external standard (ng/mL) and fit using Prism. Sample absorbances that fell within the standard curve were interpolated and adjusted for dilution (including a 2× assay dilution). Samples that were not within the standard curve were repeated at an adjusted dilution.

luciferase = test: Luciferase expression after local (intramuscular or subcutaneous) administration of mRNA; type: in vivo; conditions: mRNA 0.01 mpk, 6 hours; for IM Flux: intramuscular; for SC Flux: subcutaneous
Description: as §2
Aminolipidated peptoids were also effective for local administration of mRNA through subcutaneous (S.C.) or intramuscular (I.M.) routes of administration. For these examples, mRNA was administered at a dose of 0.1 mpk for intratomoral, or 0.01 mpk for subcutaneous and intramuscular administration, and the resulting bioluminescence quantified after 6 hours according to a similar procedure as described in Example 4.

| SMILES | PDI [1] | Particle Size [1] [nm] | mean percent encapsulation of RNA (mRNA) [%] | Total Flux (firefly luciferase) [p/s] | hEPO (hEPO) [ng/mL] | IM Flux (luciferase) [p/s] | SC Flux (luciferase) [p/s] |
| --- | --- | --- | --- | --- | --- | --- | --- |
| CCCCCCCC(=O)OCCCN(C=O)CC(=O)N(CCCOC(=O)CCCCCCC)CC(=O)N(CCc1ccccc1)CC(=O)N(CC(=O)N(CCCN1CCOCC1)CC(=O)N(CCCOC(=O)CCCCCCC)CC(=O)N(CCc1ccccc1)CC(=O)N(CCCOC(=O)CCCCCCC)CC(=O)N(CC(N)=O)CC(CC)CCCC)CC(CC)CCCC (centres unmarked) [Compound 125] | 0.111 | 86.2 | 82.1 | 2.12E+09 | 13.4 | 9.45E+07 | 8.55E+07 |
| CCCCCCCC(=O)OCCCN(C=O)CC(=O)N(CCCOC(=O)CCCCCCC)CC(=O)N(CCc1ccccc1)CC(=O)N(CC(=O)N(CCCn1ccnc1)CC(=O)N(CCCOC(=O)CCCCCCC)CC(=O)N(CCc1ccccc1)CC(=O)N(CCCOC(=O)CCCCCCC)CC(=O)N(CC(N)=O)CC(CC)CCCC)CC(CC)CCCC (centres unmarked) [Compound 123] | 0.201 | 118.1 | 56.3 | – | 172 | 6.45E+06 | 1.01E+07 |
| CCCCCCCCCCN(C=O)CC(=O)N(CCCOC(=O)CCCCCCC)CC(=O)N(CC(=O)N(CCCn1ccnc1)CC(=O)N(CC(=O)N(CCCOC(=O)CCCCCCC)CC(=O)N(CCCCCCCCCC)CC(N)=O)CC(CC)CCCC)CC(CC)CCCC (centres unmarked) [Compound 114] (For-[NDecylGly][Gly(N-(CH2)3O-octanoyl)][N(2-ethylhexyl)Gly][N(3-imidazol-1-ylpropyl)Gly][N(2-ethylhexyl)Gly][Gly(N-(CH2)3O-octanoyl)][NDecylGly]-NH2) | 0.245 | 119.7 | 40.7 | 2.06E+08 | 23.7 | 9.30E+07 | 1.03E+08 |
| CCCCCCCCCCN(C=O)CC(=O)N(CCCOC(=O)CCCCCCCCC)CC(=O)N(CC(=O)N(CCCN1CCOCC1)CC(=O)N(CC(=O)N(CCCOC(=O)CCCCCCCCC)CC(=O)N(CCCCCCCCCC)CC(N)=O)CC(CC)CCCC)CC(CC)CCCC (centres unmarked) [Compound 117] (For-[NDecylGly][Gly(N-(3-decanoyloxypropyl))][N(2-ethylhexyl)Gly][Gly(N-3-morpholinopropyl)][N(2-ethylhexyl)Gly][Gly(N-(3-decanoyloxypropyl))][NDecylGly]-NH2) | 0.156 | 78.4 | 49.8 | 5.14E+09 | 685 | 2.10E+08 | 6.43E+08 |
| CCCCCCCCCCCC(=O)OCCCN(CC(=O)N(CCCOC(=O)CCCCCCCCCCC)CC(=O)N(CCCCCC)CC(=O)N(CCCOC(=O)CCCCCCCCCCC)CC(=O)N(CCCOC(=O)CCCCCCCCCCC)CC(=O)N(CCCCCC)CC(N)=O)C(=O)CN(C=O)CCCN1CCOCC1 [Compound 71] (For-[Gly(N-3-morpholinopropyl)][N(3-lauroyloxypropyl)Gly][N(3-lauroyloxypropyl)Gly][NHexGly][N(3-lauroyloxypropyl)Gly][N(3-lauroyloxypropyl)Gly][NHexGly]-NH2) | 0.238 | 86.9 | 13.1 | 4.43E+08 | 38.1 | 3.61E+08 | 9.18E+07 |
| CCCCCCCCCCCC(=O)OCCCN(CC(=O)N(CCCOC(=O)CCCCCCCCCCC)CC(=O)N(CC(=O)N(CCCOC(=O)CCCCCCCCCCC)CC(=O)N(CCCOC(=O)CCCCCCCCCCC)CC(=O)N(CC(N)=O)CC(CC)CCCC)CC(CC)CCCC)C(=O)CNCCCn1ccnc1 (centres unmarked) [Compound 68] (H-[N(3-imidazol-1-ylpropyl)Gly][N(3-lauroyloxypropyl)Gly][N(3-lauroyloxypropyl)Gly][N(2-ethylhexyl)Gly][N(3-lauroyloxypropyl)Gly][N(3-lauroyloxypropyl)Gly][N(2-ethylhexyl)Gly]-NH2) | 0.178 | 87.2 | 79.7 | 4.20E+08 | 72.6 | 5.10E+06 | 3.39E+08 |

From patent US20260373248A1, “DEGRADABLE PEPTOIDS” (Medici Therapeutics, Inc., priority 2023, published 2026)
